In test [1] the test system is CEM cells. Nature of the test: Cytotoxicity, ID50 and ID90 by trypan blue staining. It counts as cell-based. Conditions: for IC90 / IC50: Homo sapiens, CCRF-CEM; for IC90: 48 h, read-out: ID90 (the source's name); for IC50: NT = Non-toxic to CEM cells. The procedure: CEM cells, a human T-cell lymphoblastoid leukemia cell line (American Type Culture Collection, Rockville, Md.), were cultured in suspension (Iscove's Dulbecco's Medium) supplemented with 10% heat inactivated fetal bovine serum (FBS), penicillin (250 μ/ml) and streptomycin (250 μl/ml). Cells were incubated at 37° C. in 5% C02 and only those cells in exponential growth were used.
CEM cells were seeded into 96-well microplates (Falcon, Oxnard, Calif.) at 10^5 cell per well, then treated with 0-10 μg/ml of the candidate compounds for 48 h at 37° C. yielding a total volume of 250 μ/well. Cell viability was assessed by trypan blue staining. ID50 and ID90 were defined as the concentration killing 50% or 90% of the cells in comparison with untreated controls, and calculated by non-linear regression analysis.
Cells in suspension culture were seeded into 96-well microplates (Falcon, Oxnard, Calif.) at 10^5 cell per well, followed, by treatment with 0-10 μg/ml of the candidate compounds for 48 hr at 37° C. with total volume of 250 μl per well. Cell viability was assessed by trypan blue exclusion.
The ID50 and ID90 was determined in duplicate in every set of experiments, and each experiment was repeated 3 times under identical conditions. ID50 and ID90 were defined as drug concentrations that induced 50% or 90% cellular death in comparison with untreated controls and calculated by non-linear regression analysis. […]

The test system of test [2] is CEM cells. In words: Morphology by microscopy (mitotic arrest, apoptosis, necrosis). It counts as cell-based, human. On the set-up: key to Block of Mitosis: +Block of mitosis was observed; −no mitotic blocking. To be noted: for mitotic arrest (blocking) effect, morphological appearance / Mitotic arrest, % / apoptosis by morphology: CEM cells; for mitotic arrest (blocking) effect, morphological appearance: 24 h, compound 8 at 0.025 μg/ml, compound 9 at 0.005 μg/ml; for Mitotic arrest, %: % of mitotic cells after 24 h incubation, optical microscopy; for apoptosis by morphology: treatment prolonged to 48 h; for morphological effect on leukemic cells / Activities of inducing Apoptosis / Activities of inducing Mitotic block / Activities of inducing Necrosis: CEM leukemic cells; for Activities of inducing Apoptosis / Activities of inducing Mitotic block / Activities of inducing Necrosis: % of affected cells. The procedure:
Slides for examination of mitosis were prepared on a cytospin centrifuge (Shandon Southern Products Ltd, England ) at 700 g for 5 min. Slides were air dried, fixed in methanol and stained with Giemsa (Harleco, N.J.) at room temperature for 15 min. Cells in mitotic arrest were recognized by the disappearance of nuclear membrane and by the appearance of chromosomal scattering throughout the cytoplasm (reference 1). The % of mitotic cells were counted after 24 h incubation using optical microscopy. Apoptotic cells were identified using common criteria, i.e., shrinkage in cell size, chromatin condensation and fragmentation of the nucleus into discrete masses (reference 2).
Cell samples on slides were prepared by a Cytospin centrifuge (Shandon Southern Products Ltd, England) at 700 g for 5 min. The slides were air dried, fixed in methanol and stained with Giemsa (Harleco, N.J.) at room temperature for 15 min. Alterations of nuclei, membranes and morphological features were observed by light microscopy. Cells in mitotic phase were recognized by the appearance of their chromosomes dispersed in the cytoplasm, and by the disappearance of nuclear membrane. Apoptotic-cells were identified using previously defined criteria, i.e., shrinkage in cell size, chromatin condensation and fragmentation of the nucleus into discrete masses (references 2 & 3). Necrotic cells were differentiated from apoptotic cells by observing swollen cytoplasm and the disappearance of cell membrane prior to the destruction of the nucleus.

A further test has as its system Purified tubulin. Nature of the test: Inhibition of microtubule assembly by spectrophotometry, cell free system. Format: biochemical, calf. To be noted: cell free tubulin; for inhibition of microtubule assembly: 1 μg/ml (3.3 μM for 3-BAABU). As for the experimental part:
Purified tubulin was purchased from Sigma (St. Louis, Mo.). The effects of compounds 6, 7, 8, 9, paclitaxel and vinblastine on the microtubule assembly-disassembly process were determined using conditions recommended by the vendor. For assembly inhibition, 100 μl tubulin solution (500-600 μg protein/ml) was mixed gently with 400 μl reaction buffer containing 0.1 M MES (2-[N-morpholino]ethane sulfonic acid), 1 mM EGTA ([…]-N,N,N′,N′-tetraacetic acid), 0.5 mM MgCl2, 0.1 mM EDTA and 2.5 M gycerol at 37° C. Compounds 6, 7, 8, and 9 were next added to each sample at final concentrations of 10, 10, 1 and 1 μg/ml, respectively. After adding GTP to each sample to a final concentration of 1 mM, the microtubule assembly process was monitored by measuring the change of absorbance (OD) at 350 nm on a spectrophotometer (Ultrospec III, Pharmacia LKB, Uppsala, Sweden). A completed assembly process was observed within 40 min at room temperature. For disassembly inhibition, compounds 6, 7, 8, and 9 were added, at the above concentrations, to covets with repolymerized microtubules as described above, and incubated in melting ice. Changes of absorbance (OD) were monitored at 350 nm for 30 min until the OD values in the controls returned to the starting level, i.e., when the assembly-disassembly cycle was completed.
Purified tubulin from calf brain was purchased from Sigma (St. Louis, Mo.). The effects of 3-BAABU (3-bromoacetoamido, benzoylurea) on the microtubule assembly-disassembly process were determined using the conditions recommended by the vendor. For assembly inhibition, 100 μl tubulin solution (500-600 μg protein/ml) was mixed gently with 400 μl reaction buffer containing 0.1 M MES, 1 mM EGTA, 0.5 mM MgCl2, 0.1 mM EDTA and 2.5 M glycerol at 37° C. 3-BAABU, paclitaxel or vinblastine were then added to each sample cuvet at final concentrations of 3.3, 23 or 22 μM, respectively. After adding GTP to each sample to a final concentration of 1 mM, the microtubule assembly process was monitored by measuring the change of absorbance (OD) every 5 min at 350 nm on a spectrophotometer (Ultrospec III, Pharmacia LKB, Uppsala, Sweden). A completed assembly process was observed within 40 min at room temperature. For disassembly inhibition, 3-BAABU (3.3 μM), paclitaxel (23 μM) or vinblastine (22 μM) was added to a cuvet with repolymerized microtubules according to the method described above, and incubated in melting ice. Changes of absorbance (OD) were monitored at 350 nm for 30 min until the OD values in the controls returned to the starting level, i.e., completion of the assembly-disassembly cycle. Solvent solutions were used as control and had no effect in either the assembly or disassembly process.

In test [3] the test system is CEM cells. In words: Cell cycle analysis by flow cytometry. Format: cell-based, human. Conditions: for Apoptosis (%) / G0/G1 (%) / G2/M (%) / S (%) / Mitotic Arrest: 0.025 μg/ml; for shift of the cell population from G0/G1 (2N) to G2/M (4N), DNA profile: 8 h treatment, compound 6 2.5 μg/ml, compound 8 0.025 μg/ml, compound 9 0.005 μg/ml; for Mitotic Arrest: cell cycle analyses.

[4] abbreviates: CEM cells, concentration killing 90% of the cells.

Converted amounts (≈) assume the structure as drawn. “And” between values parts separate entries of the source, which are not always exact repeats. Identical values can stand only once. “Also recorded” adds a separate entry of the source. Like-named read-outs stand apart in the source and are kept apart here. Where only a bound is given, the exact number is not on record here.

Take `NC(=O)NC(=O)c1cccc(NC(=O)CBr)c1` [Compound 8, 3-Bromoacetoamido, benzoylurea]: in the test on CEM cells [1] (setting [4]), the IC90 is 0.025 µg/mL and 82 nM. Besides, the IC90 in the test on CEM cells [1] (CEM, Human T-cell Leukemia, 48 hr) was 0.02 ± 0.003 µg/mL (≈ 0.0666 µM). The same compound had an IC50 in the test with CEM cells [1] (CEM leukemic cells, 48 hr) of 40 nM. Moreover, the “ID50 of non-malignant cells relative to leukemic and lymphoma cell lines (times)” value in the test with CEM cells [1] (non-malignant cells vs leukemia or lymphoma cell lines, listed as 3-BAABU) is reported as 60-150 times. In the test on CEM cells [2], the “mitotic arrest (blocking) effect, morphological appearance” value is listed as “main features of mitotic arrest”; the “Mitotic arrest, %” value is more than 85%; the apoptosis by morphology result is reported as “complete apoptosis”; the “morphological effect on leukemic cells” value is listed as “induced mitotic arrest”. In addition, in the test with CEM cells [2], the “Activities of inducing Apoptosis” value was “++++ (++++: >75%)”, the “Activities of inducing Mitotic block” value is given as “++++ (++++: >75%)” and the “Activities of inducing Necrosis” value is on record as “− (−:<10%)”. For the same compound, the “Block of Mitosis” value in the test with CEM cells [2] (CEM, Human T-cell Leukemia, 37° C. for 48 hr) is reported as “+”. Moreover, the “inhibition of microtubule assembly” value with Purified tubulin is listed as “complete inhibition; also recorded: completely inhibited”. In addition, the “inhibition of microtubule assembly” value in the test with Purified tubulin (listed as 3-BAABU) is listed as “Complete inhibition”. Also, in the test with CEM cells [3] (1 hour of treatment), the “Apoptosis (%)” value came to 2%, the “G0/G1 (%)” value is reported as 48%, the “G2/M (%)” value is recorded as 21% and the “S (%)” value turned out to be 29%. For the same compound, in the test on CEM cells [3] (2 hours of treatment), the “Apoptosis (%)” value stood at 1%, the “G0/G1 (%)” value is reported as 35%, the “G2/M (%)” value turned out to be 22% and the “S (%)” value was found to be 42%. Further, in the test on CEM cells [3] (4 hours of treatment), the “Apoptosis (%)” value is reported as 4%, the “G0/G1 (%)” value is on record as 28%, the “G2/M (%)” value was 29% and the “S (%)” value worked out at 39%. Further, in the test with CEM cells [3] (8 hours of treatment), the “Apoptosis (%)” value worked out at 5%, the “G0/G1 (%)” value worked out at 16%, the “G2/M (%)” value turned out to be 44% and the “S (%)” value is recorded as 35%. In addition, in the test with CEM cells [3] (12 hours of treatment), the “Apoptosis (%)” value came to 7%, the “G0/G1 (%)” value came to 4%, the “G2/M (%)” value came to 60% and the “S (%)” value turned out to be 29%. In the test on CEM cells [3] (24 hours of treatment), the “Apoptosis (%)” value is recorded as 18%, the “G0/G1 (%)” value is 2%, the “G2/M (%)” value came to 70% and the “S (%)” value came to 10%. For the same compound, in the test on CEM cells [3] (48 hours of treatment), the “Apoptosis (%)” value amounted to 33%, the “G0/G1 (%)” value is 1%, the “G2/M (%)” value came out at 61% and the “S (%)” value was determined as 5%. In addition, in the test with CEM cells [3], the “shift of the cell population from G0/G1 (2N) to G2/M (4N), DNA profile” value (“shift of the cell population from G0/G1” for short) is recorded as “major shift”. In addition, in the test on CEM cells [3] (Continuous Exposure (24 hr; 48 hr in footnote)), the “Mitotic Arrest” value is “++++ (++++: >75% cells were affected)”. Moreover, the “Mitotic Arrest” value with CEM cells [3] (Pulse Exposure (1 hr)) is “++++ (++++: >75% cells were affected)”.
On to `NC(=O)NC(=O)c1cccc(NC(=O)CI)c1` [Compound 9, 3-Iodoacetoamido, benzoylurea], for which, in the test with CEM cells [1] (CEM cells, cytotoxicity), the “fold more toxic than the bromine compound 8” value is given as 5 fold and the “fold more toxic than the chlorine compound 7” value was found to be 160 fold. The IC90 in the test with CEM cells [1] (setting [4]) was 0.005 µg/mL and 14 nM. Moreover, in the test on CEM cells [2], the “mitotic arrest (blocking) effect, morphological appearance” value was “main features of mitotic arrest”; the “Mitotic arrest, %” value is more than 85%; the apoptosis by morphology entry is “complete apoptosis”. In the test with Purified tubulin, the “inhibition of microtubule assembly” value is recorded as “complete inhibition; also recorded: completely inhibited”. For the same compound, the “shift of the cell population from G0/G1” value with CEM cells [3] is reported as “most significant transformation; also recorded: major shift”.
In the case of `NC(=O)NC(=O)c1cccc(NC(=O)CCl)c1` [Compound 7, 3-Chloroacetoamido, benzoylurea], in the test with CEM cells [1] (CEM leukemic cells), the “fold increase of ID50 relative to 3-BAABU” value stood at 40 fold. Also, in the test on CEM cells [1] (setting [4]), the IC90 is 0.6 µg/mL and 2.3 µM. The concentration for half-maximal inhibition (IC50) in the test with CEM cells [1] (CEM leukemic cells, 48 hr) was found to be 1950 nM. Further, in the test on CEM cells [2], the “mitotic arrest (blocking) effect, morphological appearance” value is “minor”; the “morphological effect on leukemic cells” value is given as “also induced mitotic arrest but with less disorganization”; the “Activities of inducing Apoptosis” value is “++ (++: 25-50%)”; the “Activities of inducing Mitotic block” value was “+ (+10-25%)”. Also, the “Activities of inducing Necrosis” value with CEM cells [2] is “− (−:<10%)”. Also, in the test on Purified tubulin (up to 10 μg/ml), the “effect on microtubule assembly” value was “very weak inhibitory effect; also recorded: no effect”. The “shift of the cell population from G0/G1” value in the test with CEM cells [3] is recorded as “slight increase”.
